Results taken from patent publication US7408048B2, “Mammalian grainyhead transcription factors” (Melbourne Health, priority 2002, dated 2008).
Marks after values point to notes of the source that are not given here.

What was measured:
[1] = system: Drosophila dopa decarboxylase promoter; test: EMSA with JEG-3 nuclear extract, Dopa decarboxylase promoter probe; format: binding; conditions: anti-MGR antisera
Text: (§1) FIG. 2 is a photographic representation showing that p70 MGR binds to Drosophila gene regulatory sequences which bind grh. (A) p70 MGR binds to the Drosophila PCNA promoter. Nuclear extract from the JEG-3 cell line was studied in an EMSA with a PCNA promoter probe in the presence and absence of anti-MGR specific antisera. Antisera 611 was raised against peptides common to the p70 and p49 MGR proteins in the dimerization domain and antisera 67 was raised against unique peptides in the NH2-terminal domain of p70 MGR. The migration of the MGR complex is shown in arrows. (B) p70 MGR binds to the Drosophila dopo decarboxylase promoter. Experimental conditions were as described for (A).
(§2) To determine the extent of the functional homology between GRH and MGR, it was initially examined whether the mammalian protein could bind to the well-characterized binding sites for the Drosophila factor in the Dopa decarboxylase and PCNA gene regulatory regions (Uv et al., Mol. Cell. Biol. 17: 6727-6735, 1997; Hayashi et al., J. Biol. Chem. 274: 35080-35088, 1999). Oligonucleotide probes encompassing these sites were incubated with nuclear extract from the human placental cell line JEG-3, which expresses both isoforms of MGR at RNA and protein level and analyzed in an electrophoretic mobility shift assay (EMSA). […]

human En-1 promoter [2] = test: En-1 promoter / luciferase reporter transfection in COS cells; format: cell-based; conditions: p70 MGR expression vector vs empty vector, MGR null cell line COS
Text: (§3) FIG. 3 are representations showing that p70 MGR binds to and transactivates the human En-1promoter. (A) Identifcation of a grh consensus DNA binding site in the human En-1promoter. The consensus sequence for grh DNA binding (SEQ ID NO: 50) compiled from an alignment of the Drosophila Ultrabithorax, Dopa decarboxylase and fushi tarazu promoters was compared with the sequence of the proximal human En-1 promoter (SEQ ID NO: 49) and the Drosophilaengrailed promoter (SEQ ID NO: 48). The closed bracket indicates the extend of the grainyhead binding site in the engrailed promoter as defined by DNAseI footprinting. (B) Human p70 MGR binds 5 to the human En-1 promoter. Nuclear extract from the JEG-3 cell line was studied in an EMSA with a Ddc promoter probe in the presence of pre-immune sera (lane 1), anti-MGR specific antisera (detailed in legend to FIG. 2) (lane 2) or cold competitor DNA (lanes 3-5). A 50-fold excess of the Ddc probe was used in lane 3 and a 10- and 20-fold excess of a human En-1promoter probe in lanes 4 and 5, respectively. The migration of the MGR/DNA complex is shown by arrows. (C) Human p70 MGR transactivates the En-1promoter. […]

[3] = system: five concatamerized GAL4 DNA binding sites upstream of the CAT gene in 293T cell line; test: GAL4 DNA binding domain fusion / CAT reporter co-transfection; format: cell-based; conditions: fused to GAL4 DNA binding domain, human 293T cell line
Text: Although significant sequence homology exists between grh and the shorter mgr isoforms and p70 mgr, the isoleucine rich transcriptional activation domain identified in the fly protein is not conserved. […] In view of the high degree of conservation of the first three coding exons of p70 mgr and bom, it was postulated that this could be the functional domain responsible for activation. To address this, the cDNA fragment encoding the first 93 amino acids of human p70 MGR (encoded by the first three exons) was subcloned in frame with the GAL4 DNA binding domain in a mammalian expression vector. […] These plasmids were co-transfected into the human 293T cell line with a reporter plasmid containing five concatamerized GAL4 DNA binding sites upstream of the chloramphenicol acetyltransferase (CAT) gene. The vector containing only the GAL4 DNA-BD or containing the VP16 activation domain fused to the GAL DNA-BD served as the negative and positive controls, respectively.

human En-1 promoter [4] = test: EMSA competition with JEG-3 nuclear extract, En-1 promoter probe; format: binding; conditions: cold En-1 probe competing with Ddc probe
Text: as §3

Drosophila PCNA promoter = test: EMSA with JEG-3 nuclear extract, PCNA promoter probe; format: binding; conditions: anti-MGR antisera
Text: as §1, §2

GRHL-3^−/− mice = format: in vivo, mouse; conditions: for Observed NTDs: GRHL-3^−/− embryos from GRHL-3^+/− intercrosses, given to pregnant females, embryos harvested E14.5; for Predicted NTDs: predicted from the response of ct/ct embryos; for Mean litter size / frequency of resorptions: mouse, in vivo
Description: GRHL-3^+/− mice were inter-crossed and folate, inositol or PBS placebo was administered to pregnant females as previously described. Embryos were harvested on E14.5 and genotyped and examined morphologically. […] The results were analysed statistically by the one-sided binomial probability test. NTDs in the curly tail mice are resistant to folate administered in early gestation. […] The effects of folate and inositol administration on pregnant GRHL-3^+/− mice previously mated with GRHL-3^+/− males was examined (Table 6). As expected, no rescue of spina bifida in GRHL-3^−/− embryos with placebo or folate treatment was observed. […] Although the numbers of embryos examined was small, the result was highly significant (p<0.001) given the 70% reduction in the incidence of spina bifida in inositol-treated ct/ct embryos. These findings indicate that GRHL-3 expression is essential for inositol-mediated rescue of folate-resistant NTDs.

curly tail (ct/ct) mice = conditions: cited from earlier work

## p70 MGR: human mammalian Grainyhead isoform p70, SEQ ID NO:4; first 93 amino acids fused to GAL4 DNA binding domain in b240
[1]
  binding to dopa decarboxylase promoter probe: binds
Human En-1 promoter [2]
  transcriptional activity of the En-1 promoter: dramatically enhanced
[3]
  transcriptional activation of the CAT gene: transcriptional activation of the CAT gene was observed
Human En-1 promoter [4]
  binding to En-1 promoter: binds
Drosophila PCNA promoter
  binding to PCNA promoter probe: binds

## Nc1nc2ncc(CNc3ccc(C(=O)N[C@@H](CCC(=O)O)C(=O)O)cc3)nc2c(=O)[nH]1 [Folate, folate]
GRHL-3^−/− mice
  Observed NTDs: 100%
  Mean litter size: did not differ significantly
  frequency of resorptions: did not differ significantly
GRHL-3^−/− mice; GRHL-3^−/− embryos
  Predicted NTDs: 100%

## O[C@H]1[C@H](O)[C@@H](O)[C@H](O)[C@@H](O)[C@H]1O [Inositol, inositol]
GRHL-3^−/− mice
  Observed NTDs: 100%*
  Mean litter size: did not differ significantly
  frequency of resorptions: did not differ significantly
GRHL-3^−/− mice; GRHL-3^−/− embryos, treatment of pregnant GRHL-3^+/− mice
  rescue of spina bifida (incidence, severity): neither the incidence, nor severity of the spina bifida in the GRHL-3^−/− embryos was alleviated
GRHL-3^−/− mice; GRHL-3^−/− embryos
  Predicted NTDs: 30%
Curly tail (ct/ct) mice; curly tail mice, administered in early gestation / pregnancy
  effect on NTDs / incidence of spina bifida: marked reduction
Curly tail (ct/ct) mice; inositol-treated ct/ct embryos
  reduction in the incidence of spina bifida: 70%

## VP16
[3]
  transcriptional activation of the CAT gene: transcriptional activation of the CAT gene was observed

B1: p49 mgr: human mammalian Grainyhead isoform p49, SEQ ID NO:2; full length fused to GAL4 DNA binding domain (protein)
chain: MASLWESPQQCIILSPLSGWWFSIGISILTSSALVLKPQMLKGELQTRPSQRPSRKAFRRNNFEYTLEASKSLRQKPGDSTMTYLNKGQFYPITLKEVSSSEGIHHPISKVRSVIMVVFAEDKSREDQLRHWKYWHSRQHTAKQRCIDIADYKESFNTISNIEEIAYNAISFTWDINDEAKVFISVNCLSTDFSSQKGVKGLPLNIQVDTYSYNNRSNKPVHRAYCQIKVFCDKGAERKIRDEERKQSKRKVSDVKVPLLPSHKRMDITVFKPFIDLDTQPVLFIPDVHFANLQRGTHVLPIASEELEGEGSVLKRGPYGTEDDFAVPPSTKLARIEEPKRVLLYVRKESEEVFDALMLKTPSLKGLMEAISDKYDVPHDKIGKIFKKCKKGILVNMDDNIVKHYSNEDT
modifications: GAL4 DNA-binding domain fusion; human
[3]
  transcriptional activation of the CAT gene: No activation was observed

B2: bom: brother of mammalian grainyhead; region comparable to first 93 amino acids of p70 MGR fused to GAL4 DNA binding domain (protein)
chain: MSQESDNNKRLVALVPMPSDPPFNTRRAYTSEDEAWKSYLENPLTAATKAMMSINGDEDSAAALGLLYDYYKVPRDKRLLSVSKASDSQEDQEKRNCLGTSEAQSNLSGGENRVQVLKTVPVNLSLNQDHLENSKREQYSISFPESSAIIPVSGITVVKAEDFTPVFMAPPVHYPRGDGEEQRVVIFEQTQYDVPSLATHSAYLKDDQRSTPDSTYSESFKDAATEKFRSASVGAEEYMYDQTSSGTFQYTLEATKSLRQKQGEGPMTYLNKGQFYAITLSETGDNKCFRHPISKVRSVVMVVFSEDKNRDEQLKYWKYWHSRQHTAKQRVLDIADYKESFNTIGNIEEIAYNAVSFTWDVNEEAKIFITVNCLSTDFSSQKGVKGLPLMIQIDTYSYNNRSNKPIHRAYCQIKVFCDKGAERKIRDEERKQNRKKGKGQASQTQCNSSSDGKLAAIPLQKKSDITYFKTMPDLHSQPVLFIPDVHFANLQRTGQVYYNTDDEREGGSVLVKRMFRPMEEEFGPVPSKQMKEEGTKRVLLYVRKETDDVFDALMLKSPTVKGLMEAISEKYGLPVEKIAKLYKKSKKGILVNMDDNIIEHYSNEDTFILNMESMVEGFKVTLMEI
modifications: human
[3]
  transcriptional activation of the CAT gene: transcriptional activation of the CAT gene was observed
